The results in this text go back to patent US6620828B2, “Thiazole compounds and pharmaceutical compositions for inhibiting protein kinases and methods for their use” (Agouron Pharmaceuticals, Inc., priority 1999, dated 2003).

Common to all, as to format: biochemical
Assay [1] concerns the target T1, phosphorylated VEGF-R2Δ50 (FLVK-P) (Homo sapiens, UniProt P35968, DEL940-989/E990V).
T1 construct: VEGF-R2Δ50 contains residues 806-939 and 990-1171; made in house; host or cells: baculovirus/insect cells
The assay is described as follows: VEGF-R2 coupled spectrophotometric (FLVK-P) assay. To be noted: combinatorial library compounds; for inhibition at 20 µM: read-out: VEGF % inhibition at 20 μM, 20 μM. Summed up:
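Baculovirus-expressed human VEGF-R2Δ50 (residues 806-939/990-1171, E990V) was autophosphorylated with 3 mM ATP, 40 mM MgCl2 for 2 h at 4° C. ADP formation was coupled via PK/LDH to NADH oxidation, read at 340 nm, with 5.1 mM poly(E4Y1), 1 mM ATP, 25 mM MgCl2, Hepes pH 7.5. Ki came from activity across compound concentrations.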

The next assay concerns the target T2, FL-CHK1 (Homo sapiens, UniProt O14757).
T2 construct: C-terminally His-tagged full-length human CHK1 (FL-CHK1); 6xHis (C); made in house; host or cells: baculovirus/insect cells
T2 sequence (O14757 1-476): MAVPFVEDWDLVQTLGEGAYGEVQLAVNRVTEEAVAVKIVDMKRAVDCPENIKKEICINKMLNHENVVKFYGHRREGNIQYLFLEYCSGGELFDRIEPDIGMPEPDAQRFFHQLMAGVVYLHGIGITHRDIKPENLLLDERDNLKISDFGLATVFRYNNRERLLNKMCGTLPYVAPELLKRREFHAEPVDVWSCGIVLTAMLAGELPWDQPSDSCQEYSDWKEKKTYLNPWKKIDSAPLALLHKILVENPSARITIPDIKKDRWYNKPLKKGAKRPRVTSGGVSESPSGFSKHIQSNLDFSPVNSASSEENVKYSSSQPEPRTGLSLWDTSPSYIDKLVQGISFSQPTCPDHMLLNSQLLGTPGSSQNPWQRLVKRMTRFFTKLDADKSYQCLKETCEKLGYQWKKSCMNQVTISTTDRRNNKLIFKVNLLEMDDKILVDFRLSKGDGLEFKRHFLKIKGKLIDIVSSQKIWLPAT
The assay is described as follows: CHK1 assay. To be noted: 20 μM; combinatorial library compounds. Summed up: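 Full-length human CHK1 with C-terminal 6×His tag, made in baculovirus/insect cells, 10 nM, phosphorylating 0.125 mM Syntide-2 with 0.15 mM ATP in 50 mM Tris pH 7.5, 25 mM MgCl2, 400 mM NaCl. PK/LDH-coupled NADH oxidation read at 340 nm. Ki from initial rates over varied compound concentrations.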

In the next assay the target is CDK2/Cyclin A complex (Homo sapiens, UniProt P24941). The assay is described as follows: CDK2/Cyclin A assay. To be noted: 1.0 μM; combinatorial library compounds. Summed up: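 Radiometric assay: 150 nM CDK2/cyclin A (insect-cell CDK2, truncated cyclin A) phosphorylates His-tagged Rb fragment (residues 386-928) with 25 μM ATP plus [32P]ATP, pH 7.4 HEPES, 2% DMSO, 30 °C for 20 min. Filter-captured product counted by phosphorimager; apparent Ki from competitive or tight-binding inhibition fits.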

For another assay, the target named is T3, CDK4/Cyclin D3 complex (Homo sapiens, UniProt P11802).
T3 construct: made in house; host or cells: insect cells co-infected with baculovirus vectors
T3 sequence (P11802 whole entry): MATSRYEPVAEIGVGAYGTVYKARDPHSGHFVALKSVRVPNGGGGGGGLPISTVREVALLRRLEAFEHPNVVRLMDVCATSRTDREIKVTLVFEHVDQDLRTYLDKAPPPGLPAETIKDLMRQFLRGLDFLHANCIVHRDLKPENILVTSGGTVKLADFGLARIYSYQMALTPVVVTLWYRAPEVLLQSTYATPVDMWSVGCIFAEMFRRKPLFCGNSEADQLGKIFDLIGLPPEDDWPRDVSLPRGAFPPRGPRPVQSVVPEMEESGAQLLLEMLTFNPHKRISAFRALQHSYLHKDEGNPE
T3 sequence (P30281 whole entry partner): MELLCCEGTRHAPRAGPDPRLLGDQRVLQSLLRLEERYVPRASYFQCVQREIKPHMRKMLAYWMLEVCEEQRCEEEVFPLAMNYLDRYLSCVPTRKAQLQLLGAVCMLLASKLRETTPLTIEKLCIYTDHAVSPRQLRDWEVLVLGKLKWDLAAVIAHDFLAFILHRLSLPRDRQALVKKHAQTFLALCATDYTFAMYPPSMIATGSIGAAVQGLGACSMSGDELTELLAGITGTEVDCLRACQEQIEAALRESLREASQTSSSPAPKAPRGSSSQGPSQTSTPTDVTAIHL
The assay is described as follows: CDK4/Cyclin D assay. The note with it: 1.0 μM; combinatorial library compounds. Summed up:
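Insect-cell-expressed CDK4/cyclin D3 (50 nM) phosphorylating His-tagged Rb fragment (residues 386-928) with 25 μM [^32P]ATP in HEPES pH 7.4, MgCl2, 2% DMSO; 20 min at 30 °C, EDTA stop. Filter-captured 32P by phosphorimager; apparent Ki from competitive or tight-binding inhibition fits.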

In general, inhibition refers to the change of the read-out against control, counted positive when it falls.

T1 sequence (P35968 with tags, fused parts or gaps DEL940-989/E990V limits assumed): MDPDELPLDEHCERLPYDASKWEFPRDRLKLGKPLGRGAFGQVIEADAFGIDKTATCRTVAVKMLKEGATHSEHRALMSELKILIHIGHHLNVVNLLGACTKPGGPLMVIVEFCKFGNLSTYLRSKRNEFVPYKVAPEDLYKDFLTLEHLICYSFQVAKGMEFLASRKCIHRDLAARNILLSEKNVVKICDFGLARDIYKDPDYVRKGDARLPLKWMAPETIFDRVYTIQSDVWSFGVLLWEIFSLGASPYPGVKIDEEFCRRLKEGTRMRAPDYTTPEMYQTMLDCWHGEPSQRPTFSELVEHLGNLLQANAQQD

Take `CN(C)c1ccc(Nc2nc(N)c(-c3nc(-c4ccc(Cl)c(Cl)c4)cs3)s2)cc1`: the figures for the inhibition at 20 µM (in assay [1]; at FL-CHK1) were 0% and 5.1%, respectively. The inhibition at 1 µM on CDK2/Cyclin A complex is 9.2%; on CDK4/Cyclin D3 complex it was -6.5%.
The matching figures for `CN(C)c1ccc(Nc2nc(N)c(-c3nc(-c4ccc(-c5ccccc5)cc4)cs3)s2)cc1`: -12%, 5%, 14.5% and -12.6%.
`Nc1nc(Nc2ccc(S(N)(=O)=O)cc2)sc1-c1nc(-c2ccc(-c3ccccc3)cc2)cs1` [drawing 404]: the inhibition at 20 µM is -3% in assay [1] and 12.3% on FL-CHK1. The inhibition at 1 µM on CDK2/Cyclin A complex was 11.2%; at CDK4/Cyclin D3 complex, -11.3%.
With `CC(C)c1ccc(Nc2nc(N)c(-c3nc(-c4csc5ccccc45)cs3)s2)cc1`, the results for the inhibition at 20 µM (in assay [1]; on FL-CHK1) were 25% and -4.3%, respectively. Also, the inhibition at 1 µM was 9.3% on CDK2/Cyclin A complex and 72% on CDK4/Cyclin D3 complex.
For `CC1(C)CCC(C)(C)c2cc(-c3csc(-c4sc(Nc5ccc(S(N)(=O)=O)cc5)nc4N)n3)ccc21`, the inhibition at 20 µM in assay [1] was -2%; at FL-CHK1, 13.1%. The inhibition at 1 µM was 35.9% at CDK2/Cyclin A complex and 31.8% on CDK4/Cyclin D3 complex.
Consider `Nc1nc(Nc2ccc(S(N)(=O)=O)cc2)sc1-c1nc(-c2ccc(O)c(O)c2)cs1`, for which the results for the inhibition at 20 µM (in assay [1]; on FL-CHK1) were 49% and 28.5%, respectively. Also, the inhibition at 1 µM on CDK2/Cyclin A complex was determined as 55.9%; at CDK4/Cyclin D3 complex, 57.2%.
In the case of `Nc1nc(Nc2ccc(S(N)(=O)=O)cc2)sc1-c1nc(-c2ccccc2)cs1` [drawing 435], the “VEGF % inhibition at 20 μM” value in assay [1] is on record as 34%. At FL-CHK1, the “CHK1 % Inhibition at 20 μM” value came out at 12.3%. In addition, the “CDK2 % Inhibition at 1.0 μM” value on CDK2/Cyclin A complex is listed as 60.8%. The “CDK4 % Inhibition at 1.0 μM” value on CDK4/Cyclin D3 complex amounted to 43.3%.
As to `CC(C)c1ccc(Nc2nc(N)c(-c3nc(-c4c(Cl)c(Cl)nc(Cl)c4Cl)cs3)s2)cc1`, the inhibition at 20 µM was determined as 30% in assay [1] and 19.3% on FL-CHK1. The inhibition at 1 µM was 12.5% at CDK2/Cyclin A complex and 72.7% at CDK4/Cyclin D3 complex.
With `CN(C)c1ccc(Nc2nc(N)c(-c3nc(-c4ccc(F)c(F)c4)cs3)s2)cc1`, the inhibition at 20 µM in assay [1] is 8%; at FL-CHK1 it was 4.2%. In addition, the inhibition at 1 µM at CDK2/Cyclin A complex came to 3.3%; at CDK4/Cyclin D3 complex, 8.1%.
With `CCN(CC)c1ccc(-c2csc(-c3sc(Nc4ccc(C(C)C)cc4)nc3N)n2)cc1`, the inhibition at 20 µM in assay [1] is 9%; at FL-CHK1, -5.3%. Besides, the inhibition at 1 µM on CDK2/Cyclin A complex stood at 12.2%; on CDK4/Cyclin D3 complex it was 73%.
In the same order, the values of `Nc1nc(Nc2ccc(S(N)(=O)=O)cc2)sc1-c1nc(-c2ccc(O)cc2)cs1` [drawing 415] are 56%, 18.7%, 57.9% and 51.3%.
The matching figures for `CN(C)c1ccc(Nc2nc(N)c(-c3nc(-c4cc(Br)c(Cl)s4)cs3)s2)cc1`: 18%, 22.8%, 17.6% and 69.1%.
Take `CC(C)c1ccc(Nc2nc(N)c(-c3nc(-c4ccc(O)c(O)c4)cs3)s2)cc1`: the inhibition at 20 µM in assay [1] was 28%; at FL-CHK1, 31.6%. The inhibition at 1 µM on CDK2/Cyclin A complex turned out to be 23.8%; at CDK4/Cyclin D3 complex it was 62.7%.
`CCOC(=O)c1cc(-c2csc(-c3sc(Nc4ccc(S(N)(=O)=O)cc4)nc3N)n2)on1`: the inhibition at 20 µM came to 3% in assay [1] and 1.1% on FL-CHK1. Also, the inhibition at 1 µM on CDK2/Cyclin A complex is 29.8%; on CDK4/Cyclin D3 complex, -13%.
The matching figures for `CC(=O)Oc1ccccc1-c1csc(-c2sc(Nc3ccc(C(C)C)cc3)nc2N)n1`: 14%, -12.8%, 6.6% and 44.3%.
Regarding `Cc1cc(-c2csc(-c3sc(Nc4ccc(S(N)(=O)=O)cc4)nc3N)n2)cs1`, the inhibition at 20 µM amounted to 34% in assay [1] and 26.6% at FL-CHK1. In addition, the inhibition at 1 µM came out at 68.2% on CDK2/Cyclin A complex and 59.6% at CDK4/Cyclin D3 complex.
Regarding `CN(C)c1ccc(Nc2nc(N)c(-c3nc(-c4ccc[nH]4)cs3)s2)cc1`, the results for the inhibition at 20 µM (in assay [1]; on FL-CHK1) were 28% and 32.5%, respectively. For the same compound, the inhibition at 1 µM is 31.7% on CDK2/Cyclin A complex and 63.6% on CDK4/Cyclin D3 complex.
On to `CN(C)c1ccc(Nc2nc(N)c(-c3nc(-c4cc5cc(Cl)ccc5o4)cs3)s2)cc1`, for which the inhibition at 20 µM is -3% in assay [1] and 7.6% at FL-CHK1. In addition, the inhibition at 1 µM is 16.9% on CDK2/Cyclin A complex and 29.6% on CDK4/Cyclin D3 complex.
`CN(C)c1ccc(Nc2nc(N)c(-c3nc(-c4ccc(OC(=O)c5ccccc5)cc4)cs3)s2)cc1`: the inhibition at 20 µM in assay [1] was -4%; at FL-CHK1 it was 5.5%. For the same compound, the inhibition at 1 µM was found to be 8.7% on CDK2/Cyclin A complex and 49.4% on CDK4/Cyclin D3 complex.
As for `CN(C)c1ccc(Nc2nc(N)c(-c3nc(-c4c(Cl)c(Cl)nc(Cl)c4Cl)cs3)s2)cc1`, the values for the inhibition at 20 µM (in assay [1]; at FL-CHK1) were 35% and 41.4%, respectively. For the same compound, the inhibition at 1 µM on CDK2/Cyclin A complex worked out at 33.3%; at CDK4/Cyclin D3 complex, 64.4%.
As for `CN(C)c1ccc(Nc2nc(N)c(-c3nc(-c4ccc(CC(=O)O)s4)cs3)s2)cc1`, the inhibition at 20 µM was found to be 28% in assay [1] and 38.1% at FL-CHK1. In addition, the results for the inhibition at 1 µM on CDK2/Cyclin A complex and on CDK4/Cyclin D3 complex were 6.3% and 69.4%, respectively.
In the case of `CCc1cc2c(cc1-c1csc(-c3sc(Nc4ccc(S(N)(=O)=O)cc4)nc3N)n1)C(C)(C)CCC2(C)C`, the inhibition at 20 µM in assay [1] is -2%; on FL-CHK1, 1.3%. Further, the inhibition at 1 µM at CDK2/Cyclin A complex was 14.1%; on CDK4/Cyclin D3 complex, -3.5%.
Regarding `Nc1nc(Nc2ccc(S(N)(=O)=O)cc2)sc1-c1nc(-c2ccc(Cl)cc2Cl)cs1` [drawing 406], the figures for the inhibition at 20 µM (in assay [1]; on FL-CHK1) were 32% and 14.7%, respectively. For the same compound, the inhibition at 1 µM came to 63% at CDK2/Cyclin A complex and 79.2% at CDK4/Cyclin D3 complex.
As for `CCN(CC)c1ccc(-c2csc(-c3sc(Nc4ccc(N(C)C)cc4)nc3N)n2)cc1`, the inhibition at 20 µM was 16% in assay [1] and 17.4% at FL-CHK1. Besides, the inhibition at 1 µM at CDK2/Cyclin A complex was 14.6%; on CDK4/Cyclin D3 complex it was 57.8%.
Take `Nc1nc(Nc2ccc(S(N)(=O)=O)cc2)sc1-c1nc(-c2ccccc2[N+](=O)[O-])cs1`: the inhibition at 20 µM was determined as 47% in assay [1] and 25.6% on FL-CHK1. The inhibition at 1 µM stood at 55.4% on CDK2/Cyclin A complex and 57.8% at CDK4/Cyclin D3 complex.
Consider `Cc1c(-c2csc(-c3sc(Nc4ccc(S(N)(=O)=O)cc4)nc3N)n2)sc2ccc(Cl)cc12` [drawing 426], for which the “VEGF % inhibition at 20 μM” value in assay [1] stood at 19%. The “CHK1 % Inhibition at 20 μM” value on FL-CHK1 stood at 9.7%. Besides, the “CDK2 % Inhibition at 1.0 μM” value on CDK2/Cyclin A complex is 56%. Further, the “CDK4 % Inhibition at 1.0 μM” value at CDK4/Cyclin D3 complex turned out to be 70.6%.
For `CCc1cc2c(cc1-c1csc(-c3sc(Nc4ccc(N(C)C)cc4)nc3N)n1)C(C)(C)CCC2(C)C`, the inhibition at 20 µM is 17% in assay [1] and 18.8% on FL-CHK1. The results for the inhibition at 1 µM at CDK2/Cyclin A complex and at CDK4/Cyclin D3 complex were 20.5% and 70.9%, respectively.
In the same order, the values of `CC(C)c1ccc(Nc2nc(N)c(-c3nc(-c4cccc(Br)c4)cs3)s2)cc1` are 5%, 12%, 14.6% and 48.1%.
Take `CC(C)c1ccc(Nc2nc(N)c(-c3nc(-c4ccc[nH]4)cs3)s2)cc1`: the inhibition at 20 µM in assay [1] is 22%; at FL-CHK1, 17.6%. Also, the values for the inhibition at 1 µM at CDK2/Cyclin A complex and at CDK4/Cyclin D3 complex were 19% and 53.3%, respectively.
